Test results taken from PubChem BioAssay AID1259411 (Chemical Carcinogenesis Research Information System (CCRIS), 2018).
The source made the active and inactive calls. How the calls were made is not given here.

Test system: rodent carcinogenicity bioassays, tumor incidence
Assay: CCRIS carcinogenicity studies
Summary of the method: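 NCI-built, expert-reviewed records of carcinogenicity and related test outcomes (mutagenicity, tumor promotion/inhibition) compiled from published and report sources, historical span 1985-2011, not updated.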

For `c1ccc(C2CO2)cc1` (configuration not stated), the carcinogen call (Species: MOUSE, Strain/Sex: B6C3F1/FEMALE, Route: GAVAGE, Dose: 0, 375, 750 MG/KG IN CORN OIL 3 D/WK FOR UP TO 104 WK (STUDY DURATION: 24 MO), Dose: 0, 375, 750 MG/KG IN CORN OIL 3 D/WK FOR UP TO 104 WK (STUDY DURATION: 24 MO), Tumor Site: Type of Lesion: FORESTOMACH: PAPILLOMA, CARCINOMA) was “active; positive”, the carcinogen call (Species: MOUSE, Strain/Sex: B6C3F1/MALE, Route: GAVAGE, Dose: 0, 375, 750 MG/KG IN CORN OIL 3 D/WK FOR UP TO 104 WK (STUDY DURATION: 24 MO), Dose: 0, 375, 750 MG/KG IN CORN OIL 3 D/WK FOR UP TO 104 WK (STUDY DURATION: 24 MO), Tumor Site: Type of Lesion: LIVER: CARCINOMA OR ADENOMA, FORESTOMACH: PAPILLOMA, CARCINOMA) was “active; positive” and the carcinogen call (Species: RAT, Strain/Sex: BDIV/FEMALE, Route: GAVAGE, Dose: 0, 100-150 MG/KG IN OLIVE OIL 1/WK FOR 96 WK ADMINISTERED TO OFFSPRING OF FEMALE RATS GIVEN 200 MG/KG ONCE ON DAY 17 OF, Tumor Site: Type of Lesion: FORESTOMACH: CARCINOMA IN SITU, CARCINOMA) was “active; positive”. The carcinogen call (Species: RAT, Strain/Sex: BDIV/FEMALE, Route: GAVAGE, Dose: 0, 200 MG/KG ONCE IN OLIVE OIL ON DAY 17 OF PREGNANCY (STUDY DURATION: 120 WK)) was “inactive; negative”, the carcinogen call (Species: RAT, Strain/Sex: BDIV/MALE, Route: GAVAGE, Dose: 0, 100-150 MG/KG IN OLIVE OIL 1/WK FOR 96 WK ADMINISTERED TO OFFSPRING OF FEMALE RATS GIVEN 200 MG/KG ONCE ON DAY 17 OF, Tumor Site: Type of Lesion: FORESTOMACH: PAPILLOMA, CARCINOMA IN SITU, CARCINOMA) was “active; positive” and the carcinogen call (Species: RAT, Strain/Sex: F344/FEMALE, Route: GAVAGE, Dose: 0, 275, 550 MG/KG IN CORN OIL 3 D/WK FOR 104 WK (STUDY DURATION: 24 MO), Dose: 0, 275, 550 MG/KG IN CORN OIL 3 D/WK FOR 104 WK (STUDY DURATION: 24 MO), Tumor Site: Type of Lesion: FORESTOMACH: PAPILLOMA, SQUAMOUS CELL CARCINOMA) was “active; positive”. For the same compound, the carcinogen call (Species: RAT, Strain/Sex: F344/MALE, Route: GAVAGE, Dose: 0, 275, 550 MG/KG IN CORN OIL 3 D/WK FOR 104 WK (STUDY DURATION: 24 MO), Dose: 0, 275, 550 MG/KG IN CORN OIL 3 D/WK FOR 104 WK (STUDY DURATION: 24 MO), Tumor Site: Type of Lesion: FORESTOMACH: PAPILLOMA, SQUAMOUS CELL CARCINOMA) was “active; positive”, the carcinogen call (Species: RAT, Strain/Sex: SPRAGUE-DAWLEY/FEMALE, Route: GAVAGE, Dose: 0, 50, 250 MG/KG BW IN OLIVE OIL 1/D 4-5 D/WK FOR 52 WK (STUDY DURATION: LIFETIME), Dose: 0, 50, 250 MG/KG BW IN OLIVE OIL 1/D 4-5 D/WK FOR 52 WK (STUDY DURATION: LIFETIME), Tumor Site: Type of Lesion: [BRAIN WAS ONLY SITE EVALUATED]) was “inactive; negative” and the carcinogen call (Species: RAT, Strain/Sex: SPRAGUE-DAWLEY/FEMALE, Route: INTRAGASTRIC, Dose: 0, 50, 250 MG/KG IN OLIVE OIL 1/D, 4-5 D/WK FOR 52 WK (STUDY DURATION: LIFESPAN, Dose: 0, 50, 250 MG/KG IN OLIVE OIL 1/D, 4-5 D/WK FOR 52 WK (STUDY DURATION: LIFESPAN, Tumor Site: Type of Lesion: FORESTOMACH: PAPILLOMA OR ACANTHOMA, SQUAMOUS CELL CARCINOMA) was “active; positive”. For the same compound, the carcinogen call (Species: RAT, Strain/Sex: SPRAGUE-DAWLEY/MALE, Route: GAVAGE, Dose: 0, 50, 250 MG/KG BW IN OLIVE OIL 1/D 4-5 D/WK FOR 52 WK (STUDY DURATION: LIFETIME), Dose: 0, 50, 250 MG/KG BW IN OLIVE OIL 1/D 4-5 D/WK FOR 52 WK (STUDY DURATION: LIFETIME), Tumor Site: Type of Lesion: [BRAIN WAS ONLY SITE EVALUATED]) was “inactive; negative” and the carcinogen call (Species: RAT, Strain/Sex: SPRAGUE-DAWLEY/MALE, Route: INTRAGASTRIC, Dose: 0, 50, 250 MG/KG IN OLIVE OIL 1/D, 4-5 D/WK FOR 52 WK (STUDY DURATION: LIFESPAN, Dose: 0, 50, 250 MG/KG IN OLIVE OIL 1/D, 4-5 D/WK FOR 52 WK (STUDY DURATION: LIFESPAN, Tumor Site: Type of Lesion: FORESTOMACH: PAPILLOMA OR ACANTHOMA, SQUAMOUS CELL CARCINOMA) was “active; positive”.

In the case of `CCN=[N+](C)[O-]`, the carcinogen call (Species: RAT, Strain/Sex: F344/MALE, Route: ORAL, Dose: 0, 12, 48 MG/ML IN A NEUTRAL DEIONIZED DRINKING WATER SOLUTION 5 D/WK FOR 30 WK (TOTAL DOSE 36; 144 MG) (STUDY DURATION:, Dose: 0, 12, 48 MG/ML IN A NEUTRAL DEIONIZED DRINKING WATER SOLUTION 5 D/WK FOR 30 WK (TOTAL DOSE 36; 144 MG) (STUDY DURATION:, Tumor Site: Type of Lesion: LIVER: CARCINOMA, HEMANGIOSARCOMA, KIDNEY: TUMOR) is reported as “active; positive”.

In the case of `c1ccc2c(c1)cc1ccc3cccc4c5ccccc5c2c1c34`, the carcinogen call (Species: MOUSE, Route: DERMAL, Tumor Site: Type of Lesion: INTEGUMENTARY SYSTEM (SKIN)) is reported as “active; positive”, the carcinogen call (Species: MOUSE, Route: SUBCUTANEOUS, Tumor Site: Type of Lesion: INJECTION SITE) is reported as “active; positive” and the carcinogen call (Species: MOUSE, Strain/Sex: SWISS/FEMALE, Route: DERMAL, Dose: 0, 1, 4, 8 NMOL IN 100 µL ACETONE 2/WK FOR 40 WK (STUDY DURATION: 48 WK), Dose: 0, 1, 4, 8 NMOL IN 100 µL ACETONE 2/WK FOR 40 WK (STUDY DURATION: 48 WK), Tumor Site: Type of Lesion: SKIN: TUMORS) is reported as “active; positive”. The carcinogen call (Species: Mouse, Strain/Sex: B6129SF1/J v 129S1/SvImJ crosses, Route: Transplacental, Dose: 15 mg/kg bw in corn oil to dams on day 18 of gestation, study duration 10 months, Tumor Site: Type of Lesion: Lung and liver tumors) was “active; positive”, the carcinogen call (Species: Mouse, Strain/Sex: B6129SF1x129S1/Svlmj/Male and female (215 in 4 groups), Route: In utero, nursing, or in utero and nursing, Dose: 15 mg/kg, gavage to pregnant B6129SF1 females, once on day 17 of pregnancy (Study duration 10 months from birth), Tumor Site: Type of Lesion: Lung) was “active; positive (surviving offspring exhibited 100% incidence with multiplicity of appr” and the carcinogen call (Species: RAT, Strain/Sex: SPRAGUE-DAWLEY/FEMALE, Route: INJECTION, Dose: 0, 0.25, 1 UMOL PER MAMMARY GLAND (STUDY DURATION: 24 WK), Dose: 0, 0.25, 1 UMOL PER MAMMARY GLAND (STUDY DURATION: 24 WK), Tumor Site: Type of Lesion: MAMMARY GLAND: TUMOR) was “active; positive”.

For `CCOc1ccc(NC(C)=O)cc1`, the carcinogen call (Species: MOUSE, Strain/Sex: B6C3F1/MALE, Route: ORAL, Dose: 0.6, 1.25% IN DIET, Tumor Site: Type of Lesion: KIDNEY: RENAL CELL ADENOMA, RENAL CELL CARCINOMA) was “active; positive”, the carcinogen call (Species: RAT, Strain/Sex: SD/CSHI/MALE, Route: ORAL, Dose: 0, 2% IN DIET FOR 85 WK (STUDY DURATION: 85 WK), Tumor Site: Type of Lesion: RENAL PELVIS: CARCINOMA, PAPILLOMA, URINARY BLADDER: PAPILLOMA) was “active; positive” and the carcinogen call (Species: RAT, Strain/Sex: SPRAGUE-DAWLEY/FEMALE, Route: ORAL, Dose: 1.25, 2.5% IN DIET FOR 18 MO, Tumor Site: Type of Lesion: NASAL CAVITY) was “active; positive”. The carcinogen call (Species: RAT, Strain/Sex: SPRAGUE-DAWLEY/MALE, Route: ORAL, Dose: 0, 0.535% IN DIET FOR 117 WK, Tumor Site: Type of Lesion: KIDNEY, NASAL CAVITY: SQUAMOUS CELL CARCINOMA) was “active; positive” and the carcinogen call (Species: RAT, Strain/Sex: SPRAGUE-DAWLEY/MALE, Route: ORAL, Dose: 1.25, 2.5% IN DIET FOR 18 MO, Tumor Site: Type of Lesion: NASAL CAVITY, URINARY TRACT) was “active; positive”.

In the case of `CC(C)([CH2][Sn]([CH2]C(C)(C)c1ccccc1)([CH2]C(C)(C)c1ccccc1)[O][Sn]([CH2]C(C)(C)c1ccccc1)([CH2]C(C)(C)c1ccccc1)[CH2]C(C)(C)c1ccccc1)c1ccccc1`, the carcinogen call (Species: Mouse, Strain/Sex: Unspecified strain/Female (96/Control group; 48/Experimental group), Route: Oral, Dose: 0, 50, 100, 300, 600 ppm of 97% fenbutatin oxide in the diet for 18 mo, study duration 18 mo, Dose: 0, 50, 100, 300, 600 ppm of 97% fenbutatin oxide in the diet for 18 mo, study duration 18 mo) is reported as “inactive; negative”, the carcinogen call (Species: Mouse, Strain/Sex: Unspecified strain/Male (96/Control group; 48/Experimental group), Route: Oral, Dose: 0, 50, 100, 300, 600 ppm of 97% fenbutatin oxide in the diet for 18 mo, study duration 18 mo, Dose: 0, 50, 100, 300, 600 ppm of 97% fenbutatin oxide in the diet for 18 mo, study duration 18 mo) is reported as “inactive; negative” and the carcinogen call (Species: Rat, Strain/Sex: Carworth Farm E/Female (96/Control group; 48/Experimental group), Route: Oral, Dose: 0, 50, 100, 300, 600 ppm of 97% fenbutatin oxide in the diet for 2 yr, study duration 2 yr, Dose: 0, 50, 100, 300, 600 ppm of 97% fenbutatin oxide in the diet for 2 yr, study duration 2 yr) is reported as “inactive; negative”. For the same compound, the carcinogen call (Species: Rat, Strain/Sex: Carworth Farm E/Male (96/Control group; 48/Experimental group), Route: Oral, Dose: 0, 50, 100, 300, 600 ppm of 97% fenbutatin oxide in the diet for 2 yr, study duration 2 yr, Dose: 0, 50, 100, 300, 600 ppm of 97% fenbutatin oxide in the diet for 2 yr, study duration 2 yr) was “inactive; negative”.
